Assay results as given in patent publication US20250152473A1, “STABLE PLINABULIN FORMULATIONS AND METHODS OF THEIR PREPARATION AND USE” (BeyondSpring Pharmaceuticals, Inc., priority 2022, published 2025).

Columns and labels:
[1] = Light sensitivity study of solid plinabulin; format: physicochemical
From the text: Table 8 illustrates the stability of solid plinabulin in a light sensitivity study.

[2] = Stress test of solid plinabulin, 30 days light storage vs dark control; format: physicochemical
From the text: This comparative example reports a plinabulin stress test of solid plinabulin showing relative stability to light storage for 30 days. […]

[3] = solid, minimum of 1.2 million LUX hours and 200 watts/square meter

With `CC(C)(C)c1[nH]cnc1/C=c1\[nH]c(=O)/c(=C/c2ccccc2)[nH]c1=O` [Plinabulin, (3Z,6Z)-3-Benzylidene-6-{[5-(2-methyl-2-propanyl)-1H-imidazol-4-yl]methylene}-2,5-piperazinedione] the Light sensitivity ([1]; solid plinabulin) was “not light sensitive”, the Appearance ([1]; solid, Dark Control) was “Yellow Solid” and the “HPLC (% AUC) at 214 nm” value ([1]; solid, Dark Control) was 99.3% AUC. For the same compound, the “HPLC (% AUC) at 250 nm” value ([1]; solid, Dark Control) was 99.5% AUC, the “HPLC (% AUC) at 370 nm” value ([1]; solid, Dark Control) was 99.4% AUC and the “Impurity at 214 nm, rrt 0.86” value ([1]; solid, Dark Control) was 0.21% @rrt 0.86. For the same compound, the “Impurity at 214 nm, rrt 0.97” value ([1]; solid, Dark Control) was 0.33% @rrt 0.97, the “Impurity at 214 nm, rrt 1.17” value ([1]; solid, Dark Control) was 0.06% @rrt 1.17 and the “Impurity at 214 nm, rrt 1.27” value ([1]; solid, Dark Control) was 0.04% @rrt 1.27. The KF ([1]; solid, Dark Control) was 5.1%, the “Single impurity >1% AUC at 214 nm” value ([1]; solid, Dark Control) was “No single impurity” and the Appearance ([1]; solid, Time 0) was “Yellow Solid”. For the same compound, the “HPLC (% AUC) at 214 nm” value ([1]; solid, Time 0) was 99.2% AUC, the “HPLC (% AUC) at 250 nm” value ([1]; solid, Time 0) was 99.4% AUC and the “HPLC (% AUC) at 370 nm” value ([1]; solid, Time 0) was 99.4% AUC. The “Impurity at 214 nm, rrt 0.86” value ([1]; solid, Time 0) was 0.21% @rrt 0.86, the “Impurity at 214 nm, rrt 0.96” value ([1]; solid, Time 0) was 0.36% @rrt 0.96 and the “Impurity at 214 nm, rrt 1.14” value ([1]; solid, Time 0) was 0.06% @rrt 1.14. The “Impurity at 214 nm, rrt 1.18” value ([1]; solid, Time 0) was 0.05% @rrt 1.18, the “Impurity at 214 nm, rrt 1.19” value ([1]; solid, Time 0) was 0.02% @rrt 1.19 and the “Impurity at 214 nm, rrt 1.28” value ([1]; solid, Time 0) was 0.02% @rrt 1.28. The KF ([1]; solid, Time 0) was 5.1%, the “Single impurity >1% AUC at 214 nm” value ([1]; solid, Time 0) was “No single impurity” and the Appearance [1, 3] was “Yellow Solid”. For the same compound, the “HPLC (% AUC) at 214 nm” value [1, 3] was 99.4% AUC, the “HPLC (% AUC) at 250 nm” value [1, 3] was 99.4% AUC and the “HPLC (% AUC) at 370 nm” value [1, 3] was 99.5% AUC. For the same compound, the “Impurity at 214 nm, rrt 0.40” value [1, 3] was 0.02% @rrt 0.40, the “Impurity at 214 nm, rrt 0.49” value [1, 3] was 0.05% @rrt 0.49 and the “Impurity at 214 nm, rrt 0.68” value [1, 3] was 0.02% @rrt 0.68. The “Impurity at 214 nm, rrt 0.86” value [1, 3] was 0.08% @rrt 0.86, the “Impurity at 214 nm, rrt 0.97” value [1, 3] was 0.29% @rrt 0.97 and the “Impurity at 214 nm, rrt 1.17” value [1, 3] was 0.05% @rrt 1.17. The “Impurity at 214 nm, rrt 1.27” value [1, 3] was 0.02% @rrt 1.27, the KF [1, 3] was 5.0% and the “Single impurity >1% AUC at 214 nm” value [1, 3] was “No single impurity”. The “Alcohol Impurity by HPLC” value ([2]; Control Sample (dark), 0 days) was 0.02%, the “Amide Impurity by HPLC” value ([2]; Control Sample (dark), 0 days) was 0.02% and the Appearance ([2]; Control Sample (dark), 0 days) was “Yellow”. For the same compound, the “Assay by HPLC” value ([2]; Control Sample (dark), 0 days) was 98.9% w/w, the “Cyano Impurity by HPLC” value ([2]; Control Sample (dark), 0 days) was 0.1% and the “De-Carboxylate Impurity by HPLC” value ([2]; Control Sample (dark), 0 days) was 0.1%. The “Ether Impurity by HPLC” value ([2]; Control Sample (dark), 0 days) was 0.02%, the “Impurity-489-1 by HPLC” value ([2]; Control Sample (dark), 0 days) was 0.1% and the “Impurity-489-2 by HPLC” value ([2]; Control Sample (dark), 0 days) was 0.1%. For the same compound, the “Other Unspecified Impurity by HPLC” value ([2]; Control Sample (dark), 0 days) was 0.02%, the “Total Impurities by HPLC” value ([2]; Control Sample (dark), 0 days) was 0.3% and the Water ([2]; Control Sample (dark), 0 days) was 0.1%. The “Alcohol Impurity by HPLC” value ([2]; Control Sample (dark), 5 days) was 0.02%, the “Amide Impurity by HPLC” value ([2]; Control Sample (dark), 5 days) was 0.02% and the Appearance ([2]; Control Sample (dark), 5 days) was “Yellow”. For the same compound, the “Assay by HPLC” value ([2]; Control Sample (dark), 5 days) was 98.42% w/w, the “Cyano Impurity by HPLC” value ([2]; Control Sample (dark), 5 days) was 0.11% and the “De-Carboxylate Impurity by HPLC” value ([2]; Control Sample (dark), 5 days) was 0.09%. The “Ether Impurity by HPLC” value ([2]; Control Sample (dark), 5 days) was 0.02%, the “Impurity-489-1 by HPLC” value ([2]; Control Sample (dark), 5 days) was 0.16% and the “Impurity-489-2 by HPLC” value ([2]; Control Sample (dark), 5 days) was 0.02%. The “Other Unspecified Impurity by HPLC” value ([2]; Control Sample (dark), 5 days) was 0.02%, the “Total Impurities by HPLC” value ([2]; Control Sample (dark), 5 days) was 0.36% and the Water ([2]; Control Sample (dark), 5 days) was 0.05%. For the same compound, the “Alcohol Impurity by HPLC” value ([2]; Control Sample (dark), 10 days) was 0.02%, the “Amide Impurity by HPLC” value ([2]; Control Sample (dark), 10 days) was 0.02% and the Appearance ([2]; Control Sample (dark), 10 days) was “Yellow”. The “Assay by HPLC” value ([2]; Control Sample (dark), 10 days) was 99.33% w/w, the “Cyano Impurity by HPLC” value ([2]; Control Sample (dark), 10 days) was 0.12% and the “De-Carboxylate Impurity by HPLC” value ([2]; Control Sample (dark), 10 days) was 0.09%. The “Ether Impurity by HPLC” value ([2]; Control Sample (dark), 10 days) was 0.02%, the “Impurity-489-1 by HPLC” value ([2]; Control Sample (dark), 10 days) was 0.12% and the “Impurity-489-2 by HPLC” value ([2]; Control Sample (dark), 10 days) was 0.02%. For the same compound, the “Other Unspecified Impurity by HPLC” value ([2]; Control Sample (dark), 10 days) was 0.02%, the “Total Impurities by HPLC” value ([2]; Control Sample (dark), 10 days) was 0.32% and the Water ([2]; Control Sample (dark), 10 days) was 0.05%. For the same compound, the “Alcohol Impurity by HPLC” value ([2]; Control Sample (dark), 30 days) was 0.02%, the “Amide Impurity by HPLC” value ([2]; Control Sample (dark), 30 days) was 0.02% and the Appearance ([2]; Control Sample (dark), 30 days) was “Yellow”. The “Assay by HPLC” value ([2]; Control Sample (dark), 30 days) was 99.29% w/w, the “Cyano Impurity by HPLC” value ([2]; Control Sample (dark), 30 days) was 0.11% and the “De-Carboxylate Impurity by HPLC” value ([2]; Control Sample (dark), 30 days) was 0.09%. For the same compound, the “Ether Impurity by HPLC” value ([2]; Control Sample (dark), 30 days) was 0.02%, the “Impurity-489-1 by HPLC” value ([2]; Control Sample (dark), 30 days) was 0.15% and the “Impurity-489-2 by HPLC” value ([2]; Control Sample (dark), 30 days) was 0.02%. The “Other Unspecified Impurity by HPLC” value ([2]; Control Sample (dark), 30 days) was 0.05%, the “Total Impurities by HPLC” value ([2]; Control Sample (dark), 30 days) was 0.36% and the Water ([2]; Control Sample (dark), 30 days) was 0.05%. The “Alcohol Impurity by HPLC” value ([2]; Photo Sample, 0 days) was 0.02%, the “Amide Impurity by HPLC” value ([2]; Photo Sample, 0 days) was 0.02% and the “Assay by HPLC” value ([2]; Photo Sample, 0 days) was 98.9% w/w. The “Cyano Impurity by HPLC” value ([2]; Photo Sample, 0 days) was 0.1%, the “De-Carboxylate Impurity by HPLC” value ([2]; Photo Sample, 0 days) was 0.1% and the “Ether Impurity by HPLC” value ([2]; Photo Sample, 0 days) was 0.02%. The “Impurity-489-1 by HPLC” value ([2]; Photo Sample, 0 days) was 0.1%, the “Impurity-489-2 by HPLC” value ([2]; Photo Sample, 0 days) was 0.1% and the “Other Unspecified Impurity by HPLC” value ([2]; Photo Sample, 0 days) was 0.02%. For the same compound, the “Total Impurities by HPLC” value ([2]; Photo Sample, 0 days) was 0.3%, the Water ([2]; Photo Sample, 0 days) was 0.1% and the “Alcohol Impurity by HPLC” value ([2]; Photo Sample, 5 days) was 0.02%. For the same compound, the “Amide Impurity by HPLC” value ([2]; Photo Sample, 5 days) was 0.02%, the “Assay by HPLC” value ([2]; Photo Sample, 5 days) was 99.37% w/w and the “Cyano Impurity by HPLC” value ([2]; Photo Sample, 5 days) was 0.11%. The “De-Carboxylate Impurity by HPLC” value ([2]; Photo Sample, 5 days) was 0.09%, the “Ether Impurity by HPLC” value ([2]; Photo Sample, 5 days) was 0.02% and the “Impurity-489-1 by HPLC” value ([2]; Photo Sample, 5 days) was 0.10%. The “Impurity-489-2 by HPLC” value ([2]; Photo Sample, 5 days) was 0.05%, the “Other Unspecified Impurity by HPLC” value ([2]; Photo Sample, 5 days) was 0.02% and the “Total Impurities by HPLC” value ([2]; Photo Sample, 5 days) was 0.3%. The Water ([2]; Photo Sample, 5 days) was 0.05%, the “Alcohol Impurity by HPLC” value ([2]; Photo Sample, 10 days) was 0.02% and the “Amide Impurity by HPLC” value ([2]; Photo Sample, 10 days) was 0.02%. The “Assay by HPLC” value ([2]; Photo Sample, 10 days) was 99.36% w/w, the “Cyano Impurity by HPLC” value ([2]; Photo Sample, 10 days) was 0.12% and the “De-Carboxylate Impurity by HPLC” value ([2]; Photo Sample, 10 days) was 0.08%. For the same compound, the “Ether Impurity by HPLC” value ([2]; Photo Sample, 10 days) was 0.02%, the “Impurity-489-1 by HPLC” value ([2]; Photo Sample, 10 days) was 0.07% and the “Impurity-489-2 by HPLC” value ([2]; Photo Sample, 10 days) was 0.05%. The “Other Unspecified Impurity by HPLC” value ([2]; Photo Sample, 10 days) was 0.02%, the “Total Impurities by HPLC” value ([2]; Photo Sample, 10 days) was 0.27% and the Water ([2]; Photo Sample, 10 days) was 0.05%. For the same compound, the “Alcohol Impurity by HPLC” value ([2]; Photo Sample, 30 days) was 0.02%, the “Amide Impurity by HPLC” value ([2]; Photo Sample, 30 days) was 0.02% and the “Assay by HPLC” value ([2]; Photo Sample, 30 days) was 99.17% w/w. For the same compound, the “Cyano Impurity by HPLC” value ([2]; Photo Sample, 30 days) was 0.11%, the “De-Carboxylate Impurity by HPLC” value ([2]; Photo Sample, 30 days) was 0.09% and the “Ether Impurity by HPLC” value ([2]; Photo Sample, 30 days) was 0.02%. For the same compound, the “Impurity-489-1 by HPLC” value ([2]; Photo Sample, 30 days) was 0.06%, the “Impurity-489-2 by HPLC” value ([2]; Photo Sample, 30 days) was 0.05% and the “Other Unspecified Impurity by HPLC” value ([2]; Photo Sample, 30 days) was 0.1%. For the same compound, the “Total Impurities by HPLC” value ([2]; Photo Sample, 30 days) was 0.6% and the Water ([2]; Photo Sample, 30 days) was 0.05%.
